The source of these data is ChEMBL document CHEMBL1201862, “PubChem BioAssay data set” (2004).

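Assay format: 96-well plates, 48-hour exposure. GI50: concentration for 50% inhibition of growth.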 Calls of active or inactive are those of the source. Rule as the data show it: active = GI50 up to about 1.1 µM and inactive = higher.

Test systems include DU-145; Hs-578T; EKVX; MDA-MB-435; TK-10; HCT-15; SR; SK-OV-3; NCI-H522; UO-31; K562; SF-539; OVCAR-5; NCI-H23; SNB-19; PC-3; A549; HOP-92; MDA-N.
Test in all cases: inhibition of tumour cell growth, NCI panel, 48 h

For the molecule `CCCCOC(=O)NC(Nc1ccc(S(N)(=O)=O)cc1)(C(F)(F)F)C(F)(F)F`, the GI50 in the test with DU-145 is > 100 µM (inactive); with Hs-578T, > 100 µM (inactive); in the test with EKVX, > 100 µM (inactive); in the test on MDA-MB-435 it was > 100 µM (inactive); in the test with TK-10, > 100 µM (inactive); in the test on HCT-15, greater than 100 µM. Moreover, the GI50 with SR was > 100 µM (inactive); with SK-OV-3, > 100 µM (inactive); in the test on NCI-H522, > 100 µM (inactive); in the test on UO-31 it was 79.8 µM (inactive); in the test with K562, > 100 µM (inactive); in the test on SF-539, > 100 µM (inactive). Further, the GI50 in the test on OVCAR-5, with NCI-H23 and with SNB-19 was > 100 µM (inactive) throughout.

In the case of `COc1cccc(Nc2nc(-c3cccs3)nc3ccc(Br)cc23)c1`, the GI50 is > 100 µM (inactive) with DU-145; > 100 µM (inactive) in the test with Hs-578T; > 100 µM (inactive) in the test on EKVX; 76 µM (inactive) with MDA-MB-435; 36.7 µM (inactive) in the test with TK-10; greater than 100 µM in the test on HCT-15. The GI50 in the test on SR is 1.48 µM (inactive); with PC-3, 27.4 µM (inactive); with SK-OV-3, 70 µM (inactive); in the test with A549 it was 76.4 µM (inactive); with NCI-H522, > 100 µM (inactive); in the test on UO-31, > 100 µM (inactive). Also, the GI50 in the test on K562 was > 100 µM (inactive); in the test with SF-539, 94.2 µM (inactive); with OVCAR-5 it was 95.3 µM (inactive); in the test on NCI-H23, 46 µM (inactive); in the test on SNB-19, 25.5 µM (inactive); in the test on HOP-92, 31.4 µM (inactive).

Regarding `Cc1[nH]nc(-c2ccon2)c1N=O`, the GI50 in the test on DU-145 is 21.4 µM (inactive); in the test on Hs-578T, 26.9 µM (inactive); in the test with EKVX, 16.7 µM (inactive); in the test with MDA-MB-435, 20.5 µM (inactive); with TK-10 it was 18.7 µM (inactive); in the test on HCT-15 it was 18.2 µM. The GI50 in the test on SR is 10 µM (inactive); in the test with PC-3, 25.3 µM (inactive); in the test on SK-OV-3 it was 26.3 µM (inactive); with A549, 23.7 µM (inactive); in the test with NCI-H522, 20 µM (inactive); with UO-31, 19.8 µM (inactive). In addition, the GI50 in the test with K562 was 18.5 µM (inactive); with SF-539 it was 17.9 µM (inactive); with OVCAR-5, 19.3 µM (inactive); with NCI-H23, 19.3 µM (inactive); in the test on SNB-19, 26.9 µM (inactive); with HOP-92 it was 14.2 µM (inactive).

`O=CC1C(Cl)=Nc2nc3ccccc3n2C1c1ccc([N+](=O)[O-])cc1` (centres undefined): the GI50 was 4.74 µM (inactive) in the test with DU-145; 57.7 µM (inactive) with Hs-578T; 24.1 µM (inactive) in the test with EKVX; 4.81 µM (inactive) in the test with MDA-MB-435; 4.54 µM (inactive) in the test on TK-10; 2.93 µM with HCT-15. In addition, the GI50 in the test on SR is 2.16 µM (inactive); in the test with PC-3, 4.89 µM (inactive); in the test on A549 it was 25.2 µM (inactive); in the test with NCI-H522, 3.71 µM (inactive); in the test on UO-31, 3.88 µM (inactive); in the test with K562, 1.8 µM (inactive). Moreover, the GI50 with SF-539 was 20.2 µM (inactive); in the test with OVCAR-5 it was 21.1 µM (inactive); with NCI-H23 it was 7.96 µM (inactive); in the test on SNB-19, 16 µM (inactive); with HOP-92 it was 5.45 µM (inactive).

Turning to `CC(C)CCNC(=O)c1ccc(CNC(=O)/C=C/c2ccc(OCc3ccccc3)cc2)cc1`, the GI50 with DU-145 is > 100 µM (inactive); in the test with MDA-MB-435 it was > 100 µM (inactive); in the test with HCT-15, greater than 100 µM; in the test with SR, > 100 µM (inactive); in the test with PC-3, > 100 µM (inactive); in the test on SK-OV-3, > 100 µM (inactive). For the same molecule, the GI50 in the test on A549, in the test on UO-31, in the test with K562, in the test on MDA-N, in the test on OVCAR-5 and in the test on NCI-H23 was > 100 µM (inactive) each time. In addition, the GI50 in the test with SNB-19 and in the test on HOP-92 was > 100 µM (inactive) throughout.

`CCOC(=O)/C(=N/Nc1ccccc1)N1C(=S)N(C)N=C(C)C=C1S`: the GI50 in the test on DU-145 was > 100 µM (inactive); in the test with Hs-578T, 70 µM (inactive); in the test on EKVX it was > 100 µM (inactive); in the test on MDA-MB-435, > 100 µM (inactive); in the test on TK-10 it was 86.1 µM (inactive); in the test with HCT-15, greater than 100 µM. The GI50 in the test with SR is > 100 µM (inactive); with SK-OV-3, > 100 µM (inactive); in the test with A549 it was > 100 µM (inactive); with NCI-H522 it was 27 µM (inactive); with UO-31, > 100 µM (inactive); with K562, > 100 µM (inactive). Moreover, the GI50 in the test on SF-539 was > 100 µM (inactive); in the test with OVCAR-5, > 100 µM (inactive); in the test on NCI-H23, 33.9 µM (inactive); in the test with SNB-19 it was > 100 µM (inactive); in the test on HOP-92 it was 47.8 µM (inactive).

For the molecule `OC1CSCCSCCCSCCSC1`, the GI50 with DU-145 was > 100 µM (inactive); in the test with Hs-578T it was > 100 µM (inactive); in the test on EKVX it was > 100 µM (inactive); in the test on MDA-MB-435, > 100 µM (inactive); with TK-10, > 100 µM (inactive); in the test on HCT-15, greater than 100 µM. For the same molecule, the GI50 with PC-3, in the test on SK-OV-3, with A549, in the test with NCI-H522, with UO-31 and in the test with K562 was > 100 µM (inactive) each time. Further, the GI50 in the test with SF-539, in the test on MDA-N, in the test with OVCAR-5, with NCI-H23, in the test on SNB-19 and with HOP-92 was > 100 µM (inactive) throughout.

As for `Cc1ccc(-c2c(C#N)c(N)nc3c2CCS(=O)(=O)c2ccccc2-3)cc1`, the GI50 in the test on DU-145 is 74.6 µM (inactive); in the test with Hs-578T, 58.1 µM (inactive); in the test on MDA-MB-435 it was > 100 µM (inactive); with TK-10 it was 59.7 µM (inactive); with HCT-15 it was greater than 100 µM; in the test on PC-3, 78.9 µM (inactive). Also, the GI50 is > 100 µM (inactive) with A549; > 100 µM (inactive) with NCI-H522; 90.8 µM (inactive) with UO-31; > 100 µM (inactive) with K562; > 100 µM (inactive) in the test with MDA-N; > 100 µM (inactive) with NCI-H23. Besides, the GI50 in the test with SNB-19 is 50.7 µM (inactive); in the test on HOP-92, 34.1 µM (inactive).

As for `O=C(Cc1ccccc1)NN1C(=O)/C(=C\c2ccc(O)cc2)S/C1=N\c1ccccc1`, the GI50 with DU-145 is > 100 µM (inactive); with Hs-578T, > 100 µM (inactive); in the test with EKVX it was > 100 µM (inactive); with MDA-MB-435, > 100 µM (inactive); in the test with TK-10, > 100 µM (inactive); with HCT-15, greater than 100 µM. Besides, the GI50 in the test on SK-OV-3, in the test on A549, in the test on UO-31, in the test with K562, with SF-539 and in the test with MDA-N was > 100 µM (inactive) each time. Further, the GI50 in the test with OVCAR-5 is > 100 µM (inactive); in the test with NCI-H23, > 100 µM (inactive); with SNB-19, > 100 µM (inactive); in the test with HOP-92, 21.6 µM (inactive).

As for `CC(C(=O)COCc1ccccc1)P1(=O)OC(C)(C)CN1C(C)(C)C` (centres undefined), the GI50 in the test on DU-145 is > 100 µM (inactive); in the test on Hs-578T, > 100 µM (inactive); in the test on EKVX, > 100 µM (inactive); with MDA-MB-435, > 100 µM (inactive); in the test with TK-10 it was > 100 µM (inactive); in the test on HCT-15 it was greater than 100 µM. The GI50 in the test with SK-OV-3, with A549, in the test on NCI-H522, in the test with UO-31, in the test on SF-539 and with MDA-N was > 100 µM (inactive) each time. For the same molecule, the GI50 is 49.4 µM (inactive) in the test with OVCAR-5, > 100 µM (inactive) in the test with NCI-H23 and > 100 µM (inactive) in the test on HOP-92.

Consider `O=Cc1cccc2ccc3ccccc3c12`, for which the GI50 in the test on DU-145 is 22.4 µM (inactive); in the test with Hs-578T, 13.5 µM (inactive); in the test with MDA-MB-435, 18.4 µM (inactive); with TK-10 it was 14.3 µM (inactive); with HCT-15, 11.1 µM; in the test on PC-3 it was 9.59 µM (inactive). The GI50 was 16.5 µM (inactive) with SK-OV-3; 24.3 µM (inactive) in the test on A549; 13.8 µM (inactive) in the test with NCI-H522; 24 µM (inactive) with UO-31; 5.86 µM (inactive) with SF-539; 21.6 µM (inactive) in the test with MDA-N. Also, the figures for the GI50 in the test with NCI-H23 and with SNB-19 were 25.1 µM (inactive) and 7.8 µM (inactive), respectively.

Take `C=CCOCC1C2CCC3(OCCO3)C21` (centres undefined): the GI50 was > 100 µM (inactive) in the test on DU-145; > 100 µM (inactive) in the test on EKVX; > 100 µM (inactive) with MDA-MB-435; > 100 µM (inactive) with TK-10; greater than 100 µM in the test with HCT-15; > 100 µM (inactive) in the test with SR. The GI50 was > 100 µM (inactive) with PC-3; > 100 µM (inactive) with SK-OV-3; > 100 µM (inactive) in the test with A549; > 100 µM (inactive) in the test with NCI-H522; 19.1 µM (inactive) in the test on UO-31; 46.9 µM (inactive) with K562. Besides, the GI50 in the test on SF-539 was > 100 µM (inactive); in the test on MDA-N, > 100 µM (inactive); with OVCAR-5, > 100 µM (inactive); in the test on NCI-H23, 48.5 µM (inactive); in the test on SNB-19 it was > 100 µM (inactive); with HOP-92, > 100 µM (inactive).
